Values quoted from earlier work in US20250186347A1 (priority 2025, published 2025).

Tested on: E. faecalis ampicillin-resistant strains
Settings: reports

For `CC1(C)S[C@@H]2[C@H](NC(=O)[C@H](N)c3ccccc3)C(=O)N2[C@H]1C(=O)O` [ampicillin], the MIC is listed as 4 to 8 µg/mL.
